3 compounds from ChEMBL document CHEMBL1201862, “PubChem BioAssay data set” (2004) can be followed below.

Structures are written as SMILES. Calls of active or inactive are those of the source.

The test system of one experiment is BJ. The experiment is described as follows: cells. The format is functional, cell-based. The conditions noted are these: Homo sapiens.
A further experiment has as its target T1, Bcl-2-related protein A1 (Mus musculus, UniProt Q07440).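 Also: confirmatory dose–response counterscreen on Bfl-1, used to check hits from a UBC13 polyubiquitin inhibitor campaign.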
T1 sequence (Q07440 whole entry): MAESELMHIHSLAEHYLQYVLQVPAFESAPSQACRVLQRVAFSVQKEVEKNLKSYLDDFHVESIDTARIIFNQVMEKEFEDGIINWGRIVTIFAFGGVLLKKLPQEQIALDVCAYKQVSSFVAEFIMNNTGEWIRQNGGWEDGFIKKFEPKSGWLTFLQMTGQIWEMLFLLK
The format is functional.

A further experiment addresses T2, Insulin-degrading enzyme (Homo sapiens, UniProt P14735).
T2 sequence (P14735 whole entry): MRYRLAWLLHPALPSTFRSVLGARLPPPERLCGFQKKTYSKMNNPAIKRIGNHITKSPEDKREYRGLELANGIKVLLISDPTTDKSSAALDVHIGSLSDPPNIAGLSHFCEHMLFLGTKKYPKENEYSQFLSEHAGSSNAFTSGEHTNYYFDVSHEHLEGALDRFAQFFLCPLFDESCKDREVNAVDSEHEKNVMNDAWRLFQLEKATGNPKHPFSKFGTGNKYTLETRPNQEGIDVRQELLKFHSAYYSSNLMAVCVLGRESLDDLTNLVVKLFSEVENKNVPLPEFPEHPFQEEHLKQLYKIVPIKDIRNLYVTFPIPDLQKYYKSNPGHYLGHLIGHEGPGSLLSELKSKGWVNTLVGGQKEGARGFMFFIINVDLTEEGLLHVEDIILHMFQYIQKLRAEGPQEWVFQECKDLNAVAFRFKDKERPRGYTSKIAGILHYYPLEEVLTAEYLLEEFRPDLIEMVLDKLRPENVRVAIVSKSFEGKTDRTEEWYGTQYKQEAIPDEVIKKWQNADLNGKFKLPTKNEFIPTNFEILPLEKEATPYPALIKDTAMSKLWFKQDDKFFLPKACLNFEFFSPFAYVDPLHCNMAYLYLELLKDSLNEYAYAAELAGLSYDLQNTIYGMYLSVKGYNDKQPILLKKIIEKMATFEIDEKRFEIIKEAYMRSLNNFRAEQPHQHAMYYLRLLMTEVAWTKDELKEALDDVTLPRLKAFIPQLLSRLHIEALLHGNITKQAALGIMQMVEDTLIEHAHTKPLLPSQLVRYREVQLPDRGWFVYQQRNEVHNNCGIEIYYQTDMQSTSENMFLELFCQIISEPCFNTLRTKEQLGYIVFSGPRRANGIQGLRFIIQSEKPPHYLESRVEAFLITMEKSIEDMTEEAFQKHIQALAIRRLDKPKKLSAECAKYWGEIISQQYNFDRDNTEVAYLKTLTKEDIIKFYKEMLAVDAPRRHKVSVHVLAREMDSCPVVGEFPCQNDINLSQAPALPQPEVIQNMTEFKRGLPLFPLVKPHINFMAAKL
The experiment is described as follows: recombinant IDE activation, cell-free – biochemical, fluorescence polarization, counter-screen for IDE activator project, dose response (AID 588681).

Experiment [1] has as its target T3, Apoptotic protease-activating factor 1 (Homo sapiens, UniProt O14727).
T3 sequence (O14727 whole entry): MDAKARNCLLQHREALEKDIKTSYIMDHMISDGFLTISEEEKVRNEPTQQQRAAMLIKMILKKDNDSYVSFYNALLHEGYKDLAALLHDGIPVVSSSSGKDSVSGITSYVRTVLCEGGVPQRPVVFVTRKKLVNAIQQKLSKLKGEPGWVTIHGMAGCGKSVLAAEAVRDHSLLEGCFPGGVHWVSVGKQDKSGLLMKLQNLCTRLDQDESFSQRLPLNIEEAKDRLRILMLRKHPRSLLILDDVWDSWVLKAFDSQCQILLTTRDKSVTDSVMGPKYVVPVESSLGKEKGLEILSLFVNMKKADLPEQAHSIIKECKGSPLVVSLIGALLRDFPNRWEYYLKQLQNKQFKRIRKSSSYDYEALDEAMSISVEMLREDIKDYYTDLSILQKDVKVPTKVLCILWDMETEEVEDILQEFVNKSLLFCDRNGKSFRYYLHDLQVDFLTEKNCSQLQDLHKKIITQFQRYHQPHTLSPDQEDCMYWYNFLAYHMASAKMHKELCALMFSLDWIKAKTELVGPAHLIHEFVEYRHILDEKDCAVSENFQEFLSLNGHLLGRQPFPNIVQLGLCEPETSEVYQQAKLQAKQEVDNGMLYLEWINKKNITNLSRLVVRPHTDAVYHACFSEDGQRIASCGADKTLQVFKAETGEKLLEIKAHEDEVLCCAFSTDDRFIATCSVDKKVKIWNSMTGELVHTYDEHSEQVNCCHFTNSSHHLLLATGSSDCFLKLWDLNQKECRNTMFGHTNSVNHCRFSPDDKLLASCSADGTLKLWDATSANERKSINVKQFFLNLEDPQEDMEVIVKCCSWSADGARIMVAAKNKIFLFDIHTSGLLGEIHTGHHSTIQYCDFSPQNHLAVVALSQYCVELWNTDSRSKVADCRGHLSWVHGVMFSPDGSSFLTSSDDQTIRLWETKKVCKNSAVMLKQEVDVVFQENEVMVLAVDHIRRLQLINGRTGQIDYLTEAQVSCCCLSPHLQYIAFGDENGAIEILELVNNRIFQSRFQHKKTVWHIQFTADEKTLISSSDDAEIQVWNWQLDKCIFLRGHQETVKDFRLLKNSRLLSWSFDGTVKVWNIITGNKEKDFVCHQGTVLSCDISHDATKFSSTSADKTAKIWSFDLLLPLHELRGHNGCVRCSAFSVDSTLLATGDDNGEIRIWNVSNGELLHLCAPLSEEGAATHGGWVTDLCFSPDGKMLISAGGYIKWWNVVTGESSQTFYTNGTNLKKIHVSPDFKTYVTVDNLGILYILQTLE
The class given is functional.

The target of experiment [2] is Serine/threonine-protein kinase PLK4 (Homo sapiens, UniProt O00444). The format is functional.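 Also: PLK4 measured as one member of a kinome-wide kinase profiling panel.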
In experiment [3] the target is Serine/threonine-protein kinase D2 (Homo sapiens, UniProt Q9BZL6). The format is functional.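 Also: measured against PRKD2 as one member of a kinome-wide kinase profiling panel.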
Experiment [4] concerns the target Mitogen-activated protein kinase 8 (Homo sapiens, UniProt P45983). The format is functional.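 Also: value comes from one member of a kinome-wide kinase profiling panel.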
In experiment [5] the target is Serine/threonine-protein kinase PAK 4 (Homo sapiens, UniProt O96013). The format is functional.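 Also: value obtained within a kinome profiling panel in which PAK4 was one of the panel members.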
Experiment [6] concerns the target Tyrosine-protein kinase JAK3 (Homo sapiens, UniProt P52333). The format is functional.
For experiment [7], the target named is Glycogen synthase kinase-3 alpha (Homo sapiens, UniProt P49840). The class given is functional.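 Also: GSK3A result taken from a broad kinome-wide kinase panel.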
Experiment [8] deals with Calcium/calmodulin-dependent protein kinase type 1 (Homo sapiens, UniProt Q14012). The class given is functional.
For experiment [9], the target named is Macrophage colony-stimulating factor 1 receptor (Homo sapiens, UniProt P07333). The format is functional.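 Also: value comes from the Navigating the Kinome screening panel, CSF1R member.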
The target in experiment [10] is Serine/threonine-protein kinase 3 (Homo sapiens, UniProt Q13188). The class given is functional.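 Also: measured as one member of a kinome-wide kinase panel.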

Calcium/calmodulin-dependent protein kinase type 1, sequence (Q14012 whole entry): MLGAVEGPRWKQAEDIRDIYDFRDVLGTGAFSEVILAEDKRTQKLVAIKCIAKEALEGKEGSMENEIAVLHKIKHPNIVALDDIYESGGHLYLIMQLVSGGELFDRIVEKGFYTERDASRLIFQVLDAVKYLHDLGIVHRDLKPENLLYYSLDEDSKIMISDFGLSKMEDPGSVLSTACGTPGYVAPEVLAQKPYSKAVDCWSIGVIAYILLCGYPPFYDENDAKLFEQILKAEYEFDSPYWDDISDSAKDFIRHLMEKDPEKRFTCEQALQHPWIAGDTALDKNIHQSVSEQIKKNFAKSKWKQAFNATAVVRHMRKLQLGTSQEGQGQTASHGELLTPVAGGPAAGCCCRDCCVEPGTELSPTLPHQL
Serine/threonine-protein kinase PLK4, sequence (O00444 whole entry): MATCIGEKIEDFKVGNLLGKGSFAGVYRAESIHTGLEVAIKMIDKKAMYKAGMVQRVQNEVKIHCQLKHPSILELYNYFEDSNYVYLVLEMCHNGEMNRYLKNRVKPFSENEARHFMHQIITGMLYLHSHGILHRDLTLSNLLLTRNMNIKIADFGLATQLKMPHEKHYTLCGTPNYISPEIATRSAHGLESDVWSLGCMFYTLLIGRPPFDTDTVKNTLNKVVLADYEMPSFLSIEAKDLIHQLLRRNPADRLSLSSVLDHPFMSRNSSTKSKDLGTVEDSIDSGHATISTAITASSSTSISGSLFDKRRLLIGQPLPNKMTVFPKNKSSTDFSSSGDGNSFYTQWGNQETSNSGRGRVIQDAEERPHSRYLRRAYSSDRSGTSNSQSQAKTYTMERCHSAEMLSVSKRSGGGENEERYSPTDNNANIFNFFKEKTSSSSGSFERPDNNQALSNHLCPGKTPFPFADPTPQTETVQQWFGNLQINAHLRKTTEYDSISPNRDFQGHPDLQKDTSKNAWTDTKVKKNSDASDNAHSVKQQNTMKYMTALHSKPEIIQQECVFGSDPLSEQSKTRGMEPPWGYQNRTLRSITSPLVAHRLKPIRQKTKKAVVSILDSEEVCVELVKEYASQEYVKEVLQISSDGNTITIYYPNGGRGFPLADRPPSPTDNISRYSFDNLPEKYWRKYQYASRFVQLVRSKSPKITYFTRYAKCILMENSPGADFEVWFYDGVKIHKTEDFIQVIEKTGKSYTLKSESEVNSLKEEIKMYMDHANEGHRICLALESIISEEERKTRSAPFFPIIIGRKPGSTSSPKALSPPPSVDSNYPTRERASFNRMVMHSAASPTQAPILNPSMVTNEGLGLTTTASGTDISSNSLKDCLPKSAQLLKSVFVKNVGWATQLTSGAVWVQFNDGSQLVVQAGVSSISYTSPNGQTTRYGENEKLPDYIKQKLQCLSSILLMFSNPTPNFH
Mitogen-activated protein kinase 8, sequence (P45983 whole entry): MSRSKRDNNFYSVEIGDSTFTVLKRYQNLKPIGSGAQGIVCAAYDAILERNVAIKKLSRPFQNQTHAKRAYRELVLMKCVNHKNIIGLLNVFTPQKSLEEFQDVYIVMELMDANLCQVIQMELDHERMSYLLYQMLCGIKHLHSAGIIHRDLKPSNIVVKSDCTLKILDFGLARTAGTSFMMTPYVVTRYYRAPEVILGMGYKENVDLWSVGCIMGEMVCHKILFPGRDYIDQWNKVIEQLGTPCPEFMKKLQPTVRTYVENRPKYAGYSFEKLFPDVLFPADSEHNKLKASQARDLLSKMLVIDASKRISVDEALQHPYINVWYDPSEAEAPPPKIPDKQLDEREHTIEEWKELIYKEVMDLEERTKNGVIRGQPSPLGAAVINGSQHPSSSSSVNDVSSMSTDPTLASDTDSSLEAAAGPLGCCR
Serine/threonine-protein kinase D2, sequence (Q9BZL6 whole entry): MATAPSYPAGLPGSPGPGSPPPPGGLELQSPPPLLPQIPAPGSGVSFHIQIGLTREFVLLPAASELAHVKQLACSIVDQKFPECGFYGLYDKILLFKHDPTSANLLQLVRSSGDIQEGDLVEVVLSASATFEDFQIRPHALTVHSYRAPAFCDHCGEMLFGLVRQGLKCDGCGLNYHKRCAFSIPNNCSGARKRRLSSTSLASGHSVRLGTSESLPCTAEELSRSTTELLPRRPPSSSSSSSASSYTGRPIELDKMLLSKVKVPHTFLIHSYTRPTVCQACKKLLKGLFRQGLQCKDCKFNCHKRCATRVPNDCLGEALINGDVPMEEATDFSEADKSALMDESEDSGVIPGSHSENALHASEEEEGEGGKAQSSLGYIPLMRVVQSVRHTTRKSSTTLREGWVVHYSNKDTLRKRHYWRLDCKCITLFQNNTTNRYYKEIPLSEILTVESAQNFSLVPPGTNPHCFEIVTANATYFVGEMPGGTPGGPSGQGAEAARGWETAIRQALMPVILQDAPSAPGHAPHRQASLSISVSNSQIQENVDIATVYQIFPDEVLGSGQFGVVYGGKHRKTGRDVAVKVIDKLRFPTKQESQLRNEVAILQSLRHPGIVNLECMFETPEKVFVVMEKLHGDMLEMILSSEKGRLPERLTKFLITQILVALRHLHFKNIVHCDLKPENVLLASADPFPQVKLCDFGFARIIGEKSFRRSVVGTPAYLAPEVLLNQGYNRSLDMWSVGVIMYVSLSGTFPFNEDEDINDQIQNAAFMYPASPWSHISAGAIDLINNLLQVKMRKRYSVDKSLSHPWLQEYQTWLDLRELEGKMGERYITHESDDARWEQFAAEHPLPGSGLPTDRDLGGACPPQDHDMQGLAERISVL
Glycogen synthase kinase-3 alpha, sequence (P49840 whole entry): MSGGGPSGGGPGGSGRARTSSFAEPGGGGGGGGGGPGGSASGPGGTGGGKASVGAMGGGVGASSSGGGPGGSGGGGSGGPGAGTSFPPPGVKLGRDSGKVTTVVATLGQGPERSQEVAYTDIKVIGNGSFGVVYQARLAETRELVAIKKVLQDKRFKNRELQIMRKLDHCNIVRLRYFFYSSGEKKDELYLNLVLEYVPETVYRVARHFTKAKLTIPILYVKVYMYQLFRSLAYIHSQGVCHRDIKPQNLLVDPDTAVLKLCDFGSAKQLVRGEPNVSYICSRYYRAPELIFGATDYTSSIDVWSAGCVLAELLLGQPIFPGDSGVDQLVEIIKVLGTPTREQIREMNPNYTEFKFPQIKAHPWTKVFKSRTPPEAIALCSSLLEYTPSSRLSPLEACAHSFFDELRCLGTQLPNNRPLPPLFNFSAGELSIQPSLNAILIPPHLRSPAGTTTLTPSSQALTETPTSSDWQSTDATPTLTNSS
Serine/threonine-protein kinase PAK 4, sequence (O96013 whole entry): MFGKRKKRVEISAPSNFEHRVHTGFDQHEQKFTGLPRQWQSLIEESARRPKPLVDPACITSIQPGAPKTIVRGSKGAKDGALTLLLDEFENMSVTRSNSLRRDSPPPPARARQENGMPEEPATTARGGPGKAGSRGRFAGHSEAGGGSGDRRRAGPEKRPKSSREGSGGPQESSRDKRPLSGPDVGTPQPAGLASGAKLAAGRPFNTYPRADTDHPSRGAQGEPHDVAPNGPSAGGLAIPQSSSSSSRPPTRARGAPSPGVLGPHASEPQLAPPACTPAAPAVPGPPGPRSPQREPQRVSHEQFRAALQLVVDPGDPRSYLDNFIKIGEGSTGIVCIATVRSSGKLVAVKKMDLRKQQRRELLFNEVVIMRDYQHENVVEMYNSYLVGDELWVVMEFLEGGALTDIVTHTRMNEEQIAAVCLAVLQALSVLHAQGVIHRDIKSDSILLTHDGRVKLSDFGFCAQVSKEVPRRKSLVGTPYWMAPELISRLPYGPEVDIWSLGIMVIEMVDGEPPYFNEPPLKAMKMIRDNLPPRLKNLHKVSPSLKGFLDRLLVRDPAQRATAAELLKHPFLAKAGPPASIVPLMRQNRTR
Macrophage colony-stimulating factor 1 receptor, sequence (P07333 whole entry): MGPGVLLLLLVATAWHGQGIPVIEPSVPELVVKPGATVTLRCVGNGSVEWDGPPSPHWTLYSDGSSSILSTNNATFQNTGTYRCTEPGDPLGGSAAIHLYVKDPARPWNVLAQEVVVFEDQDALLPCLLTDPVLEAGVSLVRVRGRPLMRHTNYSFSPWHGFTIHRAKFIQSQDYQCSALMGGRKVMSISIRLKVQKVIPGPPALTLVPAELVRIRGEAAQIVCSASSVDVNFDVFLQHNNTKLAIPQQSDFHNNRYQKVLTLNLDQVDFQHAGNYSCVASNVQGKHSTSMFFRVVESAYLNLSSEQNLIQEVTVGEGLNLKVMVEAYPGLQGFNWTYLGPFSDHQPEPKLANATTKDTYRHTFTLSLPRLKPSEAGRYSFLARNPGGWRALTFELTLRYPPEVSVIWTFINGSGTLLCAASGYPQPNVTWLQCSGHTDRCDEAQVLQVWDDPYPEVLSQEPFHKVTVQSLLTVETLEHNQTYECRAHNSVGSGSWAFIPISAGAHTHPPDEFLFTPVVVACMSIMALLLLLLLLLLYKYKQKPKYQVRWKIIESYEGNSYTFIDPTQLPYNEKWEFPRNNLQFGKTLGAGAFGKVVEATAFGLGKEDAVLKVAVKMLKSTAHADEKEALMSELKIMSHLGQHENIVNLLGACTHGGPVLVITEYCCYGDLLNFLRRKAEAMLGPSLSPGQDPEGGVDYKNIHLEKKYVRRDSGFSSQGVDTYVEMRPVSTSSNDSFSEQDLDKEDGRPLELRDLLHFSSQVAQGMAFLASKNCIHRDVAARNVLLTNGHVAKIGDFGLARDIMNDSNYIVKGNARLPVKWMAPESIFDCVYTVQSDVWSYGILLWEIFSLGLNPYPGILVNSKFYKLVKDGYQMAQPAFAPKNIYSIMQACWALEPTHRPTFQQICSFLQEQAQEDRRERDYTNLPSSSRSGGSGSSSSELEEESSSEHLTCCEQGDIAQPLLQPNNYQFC

With `Cc1cc(N)c2cc(NC(=O)/C=C/c3ccccc3Cl)ccc2n1`, the half-maximal effective concentration (EC50) – broadly, the concentration needed to bring the measured effect to its halfway point – in the experiment on BJ was 4.79 µM (inconclusive); at Insulin-degrading enzyme, > 54.7 µM (inactive). Also, the results for the IC50 (at Bcl-2-related protein A1; in experiment [1]) were 18.2 µM (active) and 9.95 µM (active), respectively.
As to `CC(=NNC(=N)N)c1cc(NC(=O)NCCCCCCNC(=O)Nc2cc(C(C)=NNC(=N)N)cc(C(C)=NNC(=N)N)c2)cc(C(C)=NNC(=N)N)c1`, the Ki (in general, a dissociation constant, usually derived from enzyme kinetics or from competition with a known ligand) in experiment [2] is > 3.98 µM (inactive); in experiment [3], 631 nM (active); in experiment [4], > 3.16 µM (inactive); in [5], 2.51 µM (active); in [6] it was 1 µM (active); in experiment [7] it was > 7.94 µM (inactive). Moreover, the Ki was 3.16 µM (active) in experiment [8], > 2.51 µM (inactive) in experiment [9] and 501 nM (active) in experiment [10].
`CCC(C)NC(=O)c1c(N)n(CCCOC)c2nc3ccccc3nc12` (centres undefined): the IC50 (as a rule, the concentration that inhibits the measured activity by half) in experiment [1] was 25.9 µM (active).
